According to PubChem BioAssay AID624491 (Broad Institute, 2012):
Activity calls are given as the source filed them.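 The calls were made as follows: active = fitted curve crossing a set activation limit at or below the highest valid dose tested; inconclusive = flat fit at 30 to 70% activation, or poor fit; inactive = the rest, including signal decreases.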

Tested on: D54 ERlucT glycosylation luciferase reporter, luminescence, 24 h
Assay: N-linked glycosylation inhibitors, luciferase reporter, dose response, D54 ERlucT cells, luminescence, cherry-picks (AID 624491);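 also: signal gain reflects blocked N-linked glycosylation of a luciferase reporter; actives raise luciferase signal so AC26 marks activators of the reporter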

In order of falling AC26:
1. Cc1cccn2c(=O)c3cc(C(=O)NC4CCCC4)n(C)c3nc12  15100 nM
2. CCN(CC)c1ccc(NC(=O)CC2Oc3ccccc3NC2=O)c(C)c1 (configuration not stated)  11600 nM
3. CCN(CC)CCCNC(=O)CSc1c2c(nc3cc(Cl)ccc13)CCCC2  11400 nM
4. COc1ccc(NC(=O)C2(C)Cc3c(-c4cccc(C(N)=O)c4)ccnc3O2)cn1 (configuration not stated)  10700 nM
5. O=C1CCCN1c1ccc(S(=O)(=O)Nc2ccc3c(c2)OCCO3)cc1  9890 nM
6. O=C(C[C@@H]1C[C@H]2c3cc(NC(=O)c4cccnc4)ccc3O[C@H]2[C@H](CO)O1)NCc1ccc(Oc2ccccc2)cc1  8780 nM
7. Cc1ccccc1OCCOC(=O)c1c(-c2ccccc2)noc1C  8510 nM
8. Cc1ccc(-c2nn3c(C)nnc3s2)cc1NCc1c(F)cccc1Cl  7650 nM
9. CCNc1ccc(Br)cc(C(=O)/C=C/c2ccc(Cl)cc2)c1=O  6710 nM
10. Cc1cc(C)c2sc(NC(=O)c3ccc([N+](=O)[O-])o3)nc2c1  6640 nM
11. CC(=O)O[C@H]1C(=O)[C@@]2(C)C([C@H](OC(=O)c3ccccc3)[C@]3(O)C[C@H](O)C(C)=C1C3(C)C)[C@]1(OC(C)=O)CO[C@@H]1C[C@H]2O (some centres not stated)  6460 nM
12. O=C(c1ccc(CS(=O)c2ccccc2Cl)o1)N1CCN(c2ccccn2)CC1 (configuration not stated)  5990 nM
13. COc1ccc(-c2nc(C(N)=O)c3[nH]c(=O)n(-c4cccc(Cl)c4)c3n2)cc1OC  5880 nM
14. COc1cccc(/C=N/NC(=O)c2cc3c(OC)c(OC)ccc3[nH]2)c1OC  5850 nM
15. Cc1c(-c2cccc(Cl)c2)nc2ccccc2c1C(=O)OC/C(O)=C(\C#N)c1nc2ccccc2[nH]1  5750 nM
16. Cn1c(=O)n(C)c2cc(NS(=O)(=O)c3ccc(F)cc3)ccc21  5290 nM
17. Oc1ccc(C2=NNC(=NCc3ccc4c(c3)OCO4)SC2)c(O)c1  4890 nM
18. CCCCc1ccc(N/C(N)=N/c2nc(C)cc(C)n2)cc1  4690 nM
19. O=C(Nc1cccc(-n2cnnn2)c1)c1cc(Cl)ccc1Cl  4570 nM
20. CNc1ncnc(Sc2ccc(Cl)cc2)c1[N+](=O)[O-]  4540 nM
21. COc1ccc(CC(=O)N/N=C/c2c(C)n(C)c3ccccc23)cc1OC  4460 nM
22. CN(C)Cc1c(C(=O)N/N=C/c2ccccc2OCc2c(F)cccc2Cl)nnn1-c1nonc1N  4210 nM
23. COc1ccc(NC(=O)c2nc(C)c(C3(C)CC(c4ccccc4)=NO3)s2)cc1 (configuration not stated)  4020 nM
24. O=C(Nc1ccccc1O)c1ccc(NS(=O)(=O)c2cccc3cccnc23)cc1  3930 nM
25. COc1ccc(C(=O)/C=C/c2ccc(OC(=O)c3cc(OC)c(OC)c(OC)c3)cc2)cc1  3740 nM
26. COc1cc(-c2cc(OC)c(O)c(OC)c2)cc(OC)c1O  3600 nM
27. Clc1cccc(N2Cc3cc(-c4ccccc4)ccc3-n3nncc3C2)c1  3580 nM
28. Cn1c(=O)n(C)c2cc(S(=O)(=O)N3CCCc4ccccc43)ccc21  3550 nM
29. CCn1c2ccccc2c2cc(NC(=O)COC(=O)C3CCC(=O)N3)ccc21 (configuration not stated)  3400 nM
30. CC1(C(=O)NCCc2ccccc2)Cc2c(-c3ccc4c(c3)OCO4)ccnc2O1 (configuration not stated)  3160 nM
31. CCOc1ccc2cc(/C=C/C(=O)c3ccco3)c(Cl)nc2c1  3060 nM
32. N#CC1=C(N)Oc2c(c(=O)sc3ccccc23)C1c1cccnc1 (configuration not stated)  2860 nM
33. COc1ccc(C(=O)C=Cc2ccc(OCc3ccccc3)c(OC)c2)cc1OC  2690 nM
34. Cn1c(=O)n(C)c2cc(NS(=O)(=O)c3ccc4c(c3)CCCC4)ccc21  2670 nM
35. O=c1[nH]c(O)c(/C=C2/C=CC(c3cc(Cl)ccc3Cl)=N2)c(=O)[nH]1  2610 nM
36. COc1ccc(-c2nc(NCCCN(C)C)c3ccccc3n2)cc1  2490 nM
37. FC(F)(F)c1cccc(Sc2nc(-c3ccccc3)nnc2C(F)(F)F)c1  2340 nM
38. CC(=O)c1c(C)[nH]c(C(=O)Nc2nccs2)c1C  2200 nM
39. COC(=O)c1ccc2c(=O)n(Cc3ccco3)c(SCC(=O)Nc3cc(C)on3)nc2c1  2190 nM
40. O=C(Nc1ncccc1O)c1ccc(S(=O)(=O)Nc2ccccc2)cc1  2190 nM
41. CC(C)(C)c1ccc(OCc2ccc(C(=O)N3CCOCC3)o2)cc1  2160 nM
42. COC(=O)c1c(NC(=O)c2cccnc2Cl)sc(C(=O)N(C)C)c1C  2090 nM
43. NC(=O)c1cccc(-c2ccnc3c2CC(C(=O)NCc2ccccc2)O3)c1 (configuration not stated)  2000 nM
44. COc1ccccc1NC(=O)c1cnc(SCC(=O)NCC2CCCO2)n(C)c1=O (configuration not stated)  1970 nM
45. COc1ccc(Nc2nc(N3CCCC3)nc3ccccc23)c(OC)c1  1950 nM
46. CC(C)c1ccc(/C=N/NC(=O)c2ccccc2Cl)cc1  1910 nM
47. Cc1c(Cl)cccc1N=Cc1ccc([N+](=O)[O-])s1  1870 nM
48. CCN(CC)CCNc1nc2cc(OC)c(OC)cc2c2nc(-c3ccccc3)nn12  1860 nM
49. CCN(CC)c1ccc(/C=N\NC(=O)c2cccc3cc[nH]c23)cc1  1860 nM
50. COc1cccc(N2CCN(C(=O)c3[nH]c(C)c(C(C)=O)c3C)CC2)c1  1680 nM
51. O=C(N/N=C/c1ccc(F)cc1)c1sccc1OCc1ccc(F)cc1  1630 nM
52. c1ccc(CNc2nc(-c3ccccc3)nc3ccccc23)cc1  1570 nM
53. COc1ccc(NC(=O)C2Cc3c(-c4cccc(NC(C)=O)c4)ccnc3O2)cc1 (configuration not stated)  1560 nM
54. CN(C)S(=O)(=O)c1ccc(N2CCCC2)c(C(=O)Nc2nc3ccc(F)cc3s2)c1  1540 nM
55. COCCCNC(=O)Cc1c(C)c2c(cc(C)c3c(C(C)(C)C)coc32)oc1=O  1510 nM
56. O=c1[nH]c(=O)n(C2CC(O)C(CO)O2)cc1Br (configuration not stated)  1490 nM
57. c1ccc2sc(Sc3ncnc4sccc34)nc2c1  1480 nM
58. CCOC(=O)N1CCN(C(=O)c2cc(-c3ccncc3)nc3ccccc23)CC1  1410 nM
59. CCOC(=O)C(C)Oc1cccc2c(=O)n(CC(=O)NCc3ccco3)ccc12 (configuration not stated)  1380 nM
60. COc1cccc(-c2nn(-c3ccccc3)cc2/C=C\C(=O)c2cccs2)c1  1360 nM
61. Cc1ccc(N2CCN(C3=NC(=O)/C(=C\c4cn[nH]c4-c4ccccc4)S3)CC2)cc1  1350 nM
62. CCCCOc1ccccc1C1CC(=O)NC2=C1C(=O)CCC2 (configuration not stated)  1320 nM
63. Cc1ccc(C)c(NC(=S)NC(NC(=O)Cc2cccc3ccccc23)C(Cl)(Cl)Cl)c1 (configuration not stated)  1270 nM
64. Cn1cccc1/C=C1\SC(=Nc2ccccc2)NC1=O  1150 nM
65. Cc1[nH]nc2c1C(c1ccc(-c3ccc(Cl)cc3)o1)C(C#N)=C(N)O2 (configuration not stated)  1140 nM
66. COc1ccc2[nH]c(C(=O)N3CCN(Cc4ccccc4)CC3)cc2c1OC  1130 nM
67. CCCc1cc(C(=O)N/N=C/c2ccc(C)o2)c2ccccc2n1  1040 nM
68. COc1ccc(C2=NOC(C(=O)NCc3cccs3)C2)cc1 (configuration not stated)  1010 nM
69. CN(Cc1ccccc1)c1nc2c(c(=O)n(C)c(=O)n2C)n1CCCc1ccccc1  981 nM
70. O=C1CC(c2ccccc2F)c2cc3c(cc2N1)CCC3 (configuration not stated)  938 nM
71. CN(C)CCNC(=O)c1cccc2[nH]c(-c3ccncc3)nc12  894 nM
72. COc1ccccc1NC(=O)Cn1nnc(C(=O)NCc2cccs2)c1N  867 nM
73. CC(C)Oc1ccccc1C1CC(=O)Nc2cc3c(cc21)OCCO3 (configuration not stated)  844 nM
74. Cc1ccc(NC(=O)c2ncn(CCCNCc3ccccc3)n2)cc1C  800 nM
75. CCN(CC)CCn1c2ccccc2c2cnc(N)c(C#N)c21  750 nM
76. CC(=O)Nc1ccc(Nc2ccc3c4c(cc(=O)n3C)-c3ccccc3C(=O)c24)cc1  730 nM
77. COc1ccc(/C=C2\SC(=O)N(CCNC(=O)C3=COCCO3)C2=O)cc1  658 nM
78. CC(=O)c1cccc(-c2ccnc3c2CC(C(=O)NCc2ccccc2)O3)c1 (configuration not stated)  657 nM
79. O=C(Nc1nc2ccccc2c(=O)s1)c1ccco1  653 nM
80. COc1ccc(CCn2c(=N)c(C(=O)NCC3CCCO3)cc3c(=O)n4cccc(C)c4nc32)cc1OC (configuration not stated)  652 nM
81. CN(C)S(=O)(=O)c1ccc(N2CCCC2)c(C(=O)Nc2nc3ccccc3s2)c1  545 nM
82. CC(=O)NC(c1cccc(F)c1)c1nc(-c2ccccc2C)cs1 (configuration not stated)  502 nM
83. COc1cc([C@@H]2c3cc4c(cc3[C@@H](OC)[C@H]3COC(=O)[C@H]23)OCO4)cc(OC)c1O  501 nM
84. O=C(N/N=C/c1ccccn1)c1cc(-c2ccncc2)nc2ccccc12  499 nM
85. C/C(=N\NC(=O)c1c([N+](=O)[O-])c(C)nn1C)c1ccc(NC(=O)C2CCCC2)cc1  498 nM
86. CCOc1ccc(Cl)cc1C1=CC(=O)C[C@H](c2ccc(OC)cc2)C1  472 nM
87. COc1cc2c(c(OC)c1OC)-c1ccc(OC)c(=O)cc1[C@@H](N(C)CC#CCO)CC2  380 nM
88. C[C@@]12C(=O)Nc3ccc(Br)cc3C(=O)N1[C@H]1c3ccccc3OC[C@@H]1[C@@H]2c1ccccc1  368 nM
89. OCC1OC(n2ccc3c(SCc4ccccc4)ncnc32)C(O)C1O (configuration not stated)  332 nM
90. Cc1ccc(N2C(=O)Nc3ccccc3C2(O)C(=O)N2CCN(c3ccccn3)CC2)cc1C (configuration not stated)  330 nM
91. CC[C@H](C)C(=O)O[C@H]1C[C@@H](C)C=C2C=C[C@H](C)[C@H](CC[C@@H]3C[C@@H](O)CC(=O)O3)[C@H]21  301 nM
92. CC(=O)Nc1ccc(CNc2ncnc3ccc(-c4c(C)noc4C)cc23)cc1  290 nM
93. Cc1ccc(NC(=O)c2cc(S(=O)(=O)N(C)C)ccc2N2CCCC2)cc1S(=O)(=O)N(C)C  276 nM
94. Nc1cc2c3c(cccc3c1)C(=O)N(CCN1CCCC1)C2=O  275 nM
95. COc1ccc(S(=O)(=O)NCc2ccccn2)cc1NC(=O)c1ccccc1  234 nM
96. O=S(=O)(Cc1ccc(Cl)cc1Cl)c1ccc(Cl)cc1  234 nM
97. NC1(C(=O)O)CSSC1  221 nM
98. COc1ccc(NC(=O)C2Cc3c(-c4cccc(C(C)=O)c4)ccnc3O2)cn1 (configuration not stated)  203 nM
99. Cc1cccc2c(C(=O)N3CCN(c4ccccc4)CC3)cc(-c3ccncc3)nc12  198 nM
100. COc1ccc2c(c1)[C@H]1[C@H](CO2)[C@H](c2ccccc2)[C@]2(C)C(=O)Nc3ccc(Br)cc3C(=O)N12  188 nM
101. N=c1c(S(=O)(=O)c2ccc(Cl)cc2)cc2c(=O)n3ccccc3nc2n1CCc1ccccc1  122 nM
102. CN(C)CCN1C(=O)c2cccc3cc([N+](=O)[O-])cc(c23)C1=O  73.5 nM
103. Cc1ccc2cc(CN(CCCN(C)C)C(=O)NCc3ccccc3)c(=O)[nH]c2c1C  69.1 nM
104. CC(=O)c1ccc(Nc2nc(-c3sc(C)nc3C)cs2)cc1  40.5 nM
105. CC(=O)N(C1=C(Cl)C(=O)c2ccccc2C1=O)C1CCCCC1  31.1 nM
106. COc1ccc(Nc2nc(-c3c(C)nc4ncccn34)cs2)cc1  17.2 nM

In the case of `COc1ccc2nc3n(c(=O)c2c1)-c1cc2ccccc2cc1C(=O)NC3Cc1ccccc1` (configuration not stated), the AC26 is reported as > 19500 nM (inactive).
